In ChEMBL document CHEMBL1201862, “PubChem BioAssay data set” (2004):
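Cultured in 96-well plates, cells were exposed to test compound for 48 hours across five concentrations. GI50 = concentration required for 50% inhibition of growth.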 Calls of active or inactive are those of the source. Cut-off read from the data, not from the text of the source: active = GI50 up to about 1.1 µM and inactive = higher.

Experiments:
Test in all cases: growth of human tumour cells (NCI), 48 h
DU-145 = tested on: DU-145
NCI/ADR-RES = tested on: NCI/ADR-RES
RXF 393 = tested on: RXF 393
UACC-257 = tested on: UACC-257
SK-MEL-28 = tested on: SK-MEL-28
PC-3 = tested on: PC-3
NCI-H522 = tested on: NCI-H522
SK-MEL-2 = tested on: SK-MEL-2
SF-268 = tested on: SF-268
HOP-62 = tested on: HOP-62
HT-29 = tested on: HT-29
BT-549 = tested on: BT-549
KM12 = tested on: KM12
ACHN = tested on: ACHN
CCRF-CEM = tested on: CCRF-CEM
OVCAR-8 = tested on: OVCAR-8
MDA-MB-435 = tested on: MDA-MB-435
HCC 2998 = tested on: HCC 2998
SF-295 = tested on: SF-295

SMILES | GI50 (DU-145) | GI50 (NCI/ADR-RES) | GI50 (RXF 393) | GI50 (UACC-257) | GI50 (SK-MEL-28) | GI50 (PC-3) | GI50 (NCI-H522) | GI50 (SK-MEL-2) | GI50 (SF-268) | GI50 (HOP-62) | GI50 (HT-29) | GI50 (BT-549) | GI50 (KM12) | GI50 (ACHN) | GI50 (CCRF-CEM) | GI50 (OVCAR-8) | GI50 (MDA-MB-435) | GI50 (HCC 2998) | GI50 (SF-295)
Cc1cc(S(=O)(=O)Nc2nc(N)n(-c3ccccc3)n2)c(S)cc1Cl | > 100 µM (inactive) | > 100 µM (inactive) | > 100 µM (inactive) | > 100 µM (inactive) | > 100 µM (inactive) | > 100 µM (inactive) | > 100 µM (inactive) | > 100 µM (inactive) | > 100 µM (inactive) | > 100 µM (inactive) | > 100 µM (inactive) | 45.1 µM (inactive) | > 100 µM (inactive) | > 100 µM (inactive) | > 100 µM (inactive) | > 100 µM (inactive) | > 100 µM (inactive) | > 100 µM (inactive) | –
COc1ccc(-n2c(N)c(C#N)c(C#N)c2-c2ccco2)cc1 | > 100 µM (inactive) | > 100 µM (inactive) | > 100 µM (inactive) | > 100 µM (inactive) | – | 46.3 µM (inactive) | 46.7 µM (inactive) | > 100 µM (inactive) | > 100 µM (inactive) | 72.1 µM (inactive) | > 100 µM (inactive) | 9.23 µM (inactive) | > 100 µM (inactive) | > 100 µM (inactive) | > 100 µM (inactive) | > 100 µM (inactive) | > 100 µM (inactive) | > 100 µM (inactive) | > 100 µM (inactive)
CCCCC1C(=O)N(c2ccc(S(=O)(=O)Nc3ccccn3)cc2)N(c2ccc(O)c(C(=O)O)c2)C1=O (configuration not stated) | > 100 µM (inactive) | > 100 µM (inactive) | > 100 µM (inactive) | > 100 µM (inactive) | > 100 µM (inactive) | > 100 µM (inactive) | > 100 µM (inactive) | > 100 µM (inactive) | > 100 µM (inactive) | – | > 100 µM (inactive) | > 100 µM (inactive) | > 100 µM (inactive) | > 100 µM (inactive) | > 100 µM (inactive) | > 100 µM (inactive) | > 100 µM (inactive) | > 100 µM (inactive) | > 100 µM (inactive)
Cc1c(C(=O)O)n2c(C)nnc2c2ccccc12 | > 100 µM (inactive) | > 100 µM (inactive) | > 100 µM (inactive) | > 100 µM (inactive) | > 100 µM (inactive) | > 100 µM (inactive) | > 100 µM (inactive) | > 100 µM (inactive) | > 100 µM (inactive) | > 100 µM (inactive) | > 100 µM (inactive) | > 100 µM (inactive) | > 100 µM (inactive) | > 100 µM (inactive) | > 100 µM (inactive) | > 100 µM (inactive) | > 100 µM (inactive) | > 100 µM (inactive) | > 100 µM (inactive)
O=c1[nH]/c(=C/c2ccc(OCc3ccccc3)cn2)c(=O)[nH]/c1=C/c1ccc([N+](=O)[O-])cc1 | > 100 µM (inactive) | > 100 µM (inactive) | > 80.2 µM (inactive) | > 100 µM (inactive) | > 100 µM (inactive) | > 100 µM (inactive) | > 100 µM (inactive) | > 100 µM (inactive) | > 54.2 µM (inactive) | 55.1 µM (inactive) | > 100 µM (inactive) | 54.7 µM (inactive) | > 100 µM (inactive) | > 94.6 µM (inactive) | > 100 µM (inactive) | > 100 µM (inactive) | > 100 µM (inactive) | > 100 µM (inactive) | 49.1 µM (inactive)
CCC(C#N)N(Cc1ccc(CN(C(=O)c2ccccc2)C(C#N)CC)cc1)C(=O)c1ccccc1 (configuration not stated) | 28.6 µM (inactive) | 18.2 µM (inactive) | 28.1 µM (inactive) | 16.6 µM (inactive) | – | 26 µM (inactive) | 23 µM (inactive) | 21.7 µM (inactive) | 29.4 µM (inactive) | 20.9 µM (inactive) | 14.7 µM (inactive) | 27.5 µM (inactive) | 21.7 µM (inactive) | 26.4 µM (inactive) | 17.8 µM (inactive) | 31.6 µM (inactive) | 25.5 µM (inactive) | 14.6 µM (inactive) | 17.6 µM (inactive)
CN1C(=O)N(C)C(O)C(Cl)(Br)C1=O (configuration not stated) | > 100 µM (inactive) | > 100 µM (inactive) | > 100 µM (inactive) | > 100 µM (inactive) | > 100 µM (inactive) | > 100 µM (inactive) | > 100 µM (inactive) | > 100 µM (inactive) | > 100 µM (inactive) | – | > 100 µM (inactive) | > 100 µM (inactive) | > 100 µM (inactive) | > 100 µM (inactive) | > 100 µM (inactive) | > 100 µM (inactive) | > 100 µM (inactive) | > 100 µM (inactive) | > 100 µM (inactive)
CN(C)CC1CCC/C(=C\c2ccc(N(C)C)cc2)C1=O (configuration not stated) | 17.1 µM (inactive) | 25.9 µM (inactive) | 8.13 µM (inactive) | 13.5 µM (inactive) | 5.64 µM (inactive) | 18.2 µM (inactive) | 1.75 µM (inactive) | 10.2 µM (inactive) | 1.78 µM (inactive) | 18.8 µM (inactive) | 2 µM (inactive) | 16.2 µM (inactive) | 1.44 µM (inactive) | 19.8 µM (inactive) | > 100 µM (inactive) | 5.45 µM (inactive) | 5.4 µM (inactive) | 15.9 µM (inactive) | 18.2 µM (inactive)
CC(Cl)CN1c2ccccc2Sc2ccc(Cl)cc21 (configuration not stated) | > 10 µM (inactive) | > 10 µM (inactive) | > 10 µM (inactive) | > 10 µM (inactive) | > 10 µM (inactive) | > 10 µM (inactive) | > 10 µM (inactive) | > 10 µM (inactive) | > 10 µM (inactive) | > 10 µM (inactive) | > 10 µM (inactive) | > 10 µM (inactive) | > 10 µM (inactive) | > 10 µM (inactive) | > 10 µM (inactive) | > 10 µM (inactive) | > 10 µM (inactive) | > 10 µM (inactive) | > 10 µM (inactive)
COc1cc(C2C3=C(COC3=O)OC(C)(C)Oc3cc4c(cc32)OCO4)cc(OC)c1O (configuration not stated) | 1.39 µM (inactive) | 0.39 µM (active) | 0.122 µM (active) | 5.14 µM (inactive) | 0.973 µM (active) | 0.444 µM (active) | 0.244 µM (active) | 14.6 µM (inactive) | 0.916 µM (active) | 0.791 µM (active) | 2.19 µM (inactive) | 12.9 µM (inactive) | 0.531 µM (active) | 0.851 µM (active) | 1.36 µM (inactive) | 0.964 µM (active) | 0.217 µM (active) | 2.27 µM (inactive) | 0.232 µM (active)
CN(C)C1(c2cc3ccccc3s2)CCCCC1 | 54.8 µM (inactive) | 44.1 µM (inactive) | 25.5 µM (inactive) | 28.1 µM (inactive) | – | 28.8 µM (inactive) | 16.7 µM (inactive) | 24.3 µM (inactive) | 18.8 µM (inactive) | 58.1 µM (inactive) | 33 µM (inactive) | 64.9 µM (inactive) | 36.5 µM (inactive) | 51.2 µM (inactive) | < 0.01 µM (active) | 51.3 µM (inactive) | 35.7 µM (inactive) | 22.9 µM (inactive) | 26.6 µM (inactive)
N/C(=N\O)N/N=C/c1cc(I)cc(I)c1O | 31.6 µM (inactive) | 2.8 µM (inactive) | 24.5 µM (inactive) | 52.2 µM (inactive) | 49.2 µM (inactive) | 37.2 µM (inactive) | 80.5 µM (inactive) | 54.8 µM (inactive) | 24.1 µM (inactive) | 42.3 µM (inactive) | 46.7 µM (inactive) | 47.4 µM (inactive) | > 100 µM (inactive) | 24.1 µM (inactive) | 7.89 µM (inactive) | 27.9 µM (inactive) | 69.5 µM (inactive) | 61.9 µM (inactive) | 50.4 µM (inactive)
Nc1nc(Cl)cc(Nc2cc(Cl)cc(Cl)c2)n1 | 26.1 µM (inactive) | 21 µM (inactive) | 21.1 µM (inactive) | 18.5 µM (inactive) | – | 19.7 µM (inactive) | 10.9 µM (inactive) | 18.7 µM (inactive) | 20.8 µM (inactive) | 29.2 µM (inactive) | 17 µM (inactive) | 22.1 µM (inactive) | 20.9 µM (inactive) | 24.9 µM (inactive) | 28.5 µM (inactive) | 14.2 µM (inactive) | 20.1 µM (inactive) | 18.7 µM (inactive) | 21.1 µM (inactive)
CCOC(=O)c1csc(-c2cn(C)c3c2C(=O)C(OC)=CC3=O)n1 | 6.05 µM (inactive) | 22.5 µM (inactive) | 23.6 µM (inactive) | 21.6 µM (inactive) | 32.6 µM (inactive) | 21.4 µM (inactive) | 36.6 µM (inactive) | 21.7 µM (inactive) | > 62.5 µM (inactive) | 23.2 µM (inactive) | 48.2 µM (inactive) | > 40.3 µM (inactive) | 20 µM (inactive) | 34.8 µM (inactive) | 72.8 µM (inactive) | 45.2 µM (inactive) | 3.27 µM (inactive) | 23.8 µM (inactive) | 25 µM (inactive)
CC(C)=CCC/C(C)=C/Cc1cc(/C=C/c2cc(O)c(CC=C(C)C)c(O)c2)cc(O)c1O [MAPPAIN] | 13.7 µM (inactive) | 3.15 µM (inactive) | 2.46 µM (inactive) | 1.67 µM (inactive) | 5.18 µM (inactive) | 3.36 µM (inactive) | 0.141 µM (active) | 2.77 µM (inactive) | 2.64 µM (inactive) | 11.4 µM (inactive) | 4.18 µM (inactive) | 3.29 µM (inactive) | 4.29 µM (inactive) | 1.48 µM (inactive) | – | 3.6 µM (inactive) | 2.55 µM (inactive) | 2.13 µM (inactive) | 4.65 µM (inactive)
